# Reference: patent publication US8748415B2 (priority 2011, dated 2014)
# System: recombinant NL4-3 virus (Renilla luciferase in nef, Gag P373S)
# Experiment: HIV cell culture assay (luciferase activity in MT-2 cells infected with NLRluc recombinant virus)
# Format: cell-based
# Conditions: NL43, MT-2 cells infected 4-5 days with NLRluc recombinant virus, class symbol
# Protocol: HIV cell culture assay—MT-2 cells and 293T cells were obtained from the NIH AIDS Research and Reference Reagent Program. MT-2 cells were propagated in RPMI 1640 media supplemented with 10% heat inactivated fetal bovine serum, […]. The 293T cells were propagated in DMEM media supplemented with 10% heat inactivated fetal bovine serum (FBS), 100 units/ml penicillin G and 100 μg/ml streptomycin. The proviral DNA clone of NL4-3 was obtained from the NIH AIDS Research and Reference Reagent Program. A recombinant NL4-3 virus, in which a section of the nef gene from NL4-3 was replaced with the Renilla luciferase gene, was used as a reference virus. In addition, residue Gag P373 was converted to P373S. Briefly, the recombinant virus was prepared by transfection of the altered proviral clone of NL4-3. Transfections were performed in 293T cells using LipofectAMINE PLUS from Invitrogen (Carlsbad, Calif.), according to manufacturer's instruction. The virus was titered in MT-2 cells using luciferase enzyme activity as a marker. Luciferase was quantitated using the Dual Luciferase kit from Promega (Madison, Wis.), with modifications to the manufacturer's protocol. The diluted Passive Lysis solution was pre-mixed with the re-suspended Luciferase Assay Reagent and the re-suspended Stop & Glo Substrate (2:1:1 ratio). Fifty (50) μL of the mixture was added to each aspirated well on assay plates and luciferase activity was measured immediately on a Wallac TriLux (Perkin-Elmer). Antiviral activities of inhibitors toward the recombinant virus were quantified by measuring luciferase activity in cells infected for 4-5 days with NLRluc recombinants in the presence serial dilutions of the inhibitor. Table 1 is the key for the data in Table 2.
row,SMILES,EC50 [nM]
1,"C=C(C)[C@@H]1CC[C@]2(CNCC3CCCN3CC)CC[C@]3(C)[C@H](CC[C@@H]4[C@@]5(C)CC=C(c6ccc(C(=O)O)cc6)C(C)(C)[C@@H]5CC[C@]43C)[C@@H]12 (single isomer, unassigned) [Example 4]",< 100
2,"C=C(C)[C@@H]1CC[C@]2(CNCCN(C)C)CC[C@]3(C)[C@H](CC[C@@H]4[C@@]5(C)CC=C(c6ccc(C(=O)O)cc6)C(C)(C)[C@@H]5CC[C@]43C)[C@@H]12 [Example 1, 4-((1R,3aS,5aR,5bR,7aR,11aS,11bR,13aR,13bR)-3a-((2-(dimethylamino)ethylamino)methyl)-5a,5b,8,8,11a-pentamethyl-1-(prop-1-en-2-yl)-2,3,3a,4,5,5a,5b,6,7,7a,8,11,11a,11b,12,13,13a,13b-octadecahydro-1H-cyclopenta[a]chrysen-9-yl)benzoic acid]",< 100
3,"C=C(C)[C@@H]1CC[C@]2(CNCCCN3CCOCC3)CC[C@]3(C)[C@H](CC[C@@H]4[C@@]5(C)CC=C(c6ccc(C(=O)O)cc6)C(C)(C)[C@@H]5CC[C@]43C)[C@@H]12 [Example 2, 4-((1R,3aS,5aR,5bR,7aR,11aS,11bR,13aR,13bR)-5a,5b,8,8,11a-pentamethyl-3a-((3-morpholinopropylamino)methyl)-1-(prop-1-en-2-yl)-2,3,3a,4,5,5a,5b,6,7,7a,8,11,11a,11b,12,13,13a,13b-octadecahydro-1H-cyclopenta[a]chrysen-9-yl)benzoic acid]",< 100
4,"C=C(C)[C@@H]1CC[C@]2(CNCCNC(C)=O)CC[C@]3(C)[C@H](CC[C@@H]4[C@@]5(C)CC=C(c6ccc(C(=O)O)cc6)C(C)(C)[C@@H]5CC[C@]43C)[C@@H]12 [Example 7, 4-((1R,3aS,5aR,5bR,7aR,11aS,11bR,13aR,13bR)-3a-((2-acetamidoethylamino)methyl)-5a,5b,8,8,11a-pentamethyl-1-(prop-1-en-2-yl)-2,3,3a,4,5,5a,5b,6,7,7a,8,11,11a,11b,12,13,13a,13b-octadecahydro-1H-cyclopenta[a]chrysen-9-yl)benzoic acid]",< 100
5,"C=C(C)[C@@H]1CC[C@]2(CNCCN3CCNCC3)CC[C@]3(C)[C@H](CC[C@@H]4[C@@]5(C)CC=C(c6ccc(C(=O)O)cc6)C(C)(C)[C@@H]5CC[C@]43C)[C@@H]12 [Example 8, 4-((1R,3aS,5aR,5bR,7aR,11aS,11bR,13aR,13bR)-5a,5b,8,8,11a-pentamethyl-3a-((2-(piperazin-1-yl)ethylamino)methyl)-1-(prop-1-en-2-yl)-2,3,3a,4,5,5a,5b,6,7,7a,8,11,11a,11b,12,13,13a,13b-octadecahydro-1H-cyclopenta[a]chrysen-9-yl)benzoic acid]",< 100
6,"C=C(C)[C@@H]1CC[C@]2(CNCCN3CCCCC3)CC[C@]3(C)[C@H](CC[C@@H]4[C@@]5(C)CC=C(c6ccc(C(=O)O)cc6)C(C)(C)[C@@H]5CC[C@]43C)[C@@H]12 [Example 9, 4-((1R,3aS,5aR,5bR,7aR,11aS,11bR,13aR,13bR)-5a,5b,8,8,11a-pentamethyl-3a-((2-(piperidin-1-yl)ethylamino)methyl)-1-(prop-1-en-2-yl)-2,3,3a,4,5,5a,5b,6,7,7a,8,11,11a,11b,12,13,13a,13b-octadecahydro-1H-cyclopenta[a]chrysen-9-yl)benzoic acid]",< 100
7,"C=C(C)[C@@H]1CC[C@]2(CNCCN3CCN(C)CC3)CC[C@]3(C)[C@H](CC[C@@H]4[C@@]5(C)CC=C(c6ccc(C(=O)O)cc6)C(C)(C)[C@@H]5CC[C@]43C)[C@@H]12 [Example 11, 4-((1R,3aS,5aR,5bR,7aR,11aS,1bR,13aR,13bR)-5a,5b,8,8,11a-pentamethyl-3a-((2-(4-methylpiperazin-1-yl)ethylamino)methyl)-1-(prop-1-en-2-yl)-2,3,3a,4,5,5a,5b,6,7,7a,8,11,11a,11b,12,13,13a,13b-octadecahydro-1H-cyclopenta[a]chrysen-9-yl)benzoic acid]",< 100
8,"C=C(C)[C@@H]1CC[C@]2(CN(CCN(C)C)C(=O)CC(=O)O)CC[C@]3(C)[C@H](CC[C@@H]4[C@@]5(C)CC=C(c6ccc(C(=O)O)cc6)C(C)(C)[C@@H]5CC[C@]43C)[C@@H]12 [Example 12, 4-((1R,3aS,5aR,5bR,7aR,11aS,11bR,13aR,13bR)-3a-((2-carboxy-N-(2-(dimethylamino)ethyl)acetamido)methyl)-5a,5b,8,8,11a-pentamethyl-1-(prop-1-en-2-yl)-2,3,3a,4,5,5a,5b,6,7,7a,8,11,11a,11b,12,13,13a,13b-octadecahydro-1H-cyclopenta[a]chrysen-9-yl)benzoic acid]",< 100
9,"C=C(C)[C@@H]1CC[C@]2(CN(CCN(C)C)C(=O)CCC(=O)O)CC[C@]3(C)[C@H](CC[C@@H]4[C@@]5(C)CC=C(c6ccc(C(=O)O)cc6)C(C)(C)[C@@H]5CC[C@]43C)[C@@H]12 [Example 13, 4-((1R,3aS,5aR,5bR,7aR,11aS,11bR,13aR,13bR)-3a-((3-carboxy-N-(2-(dimethylamino)ethyl)propanamido)methyl)-5a,5b,8,8,11a-pentamethyl-1-(prop-1-en-2-yl)-2,3,3a,4,5,5a,5b,6,7,7a,8,11,11a,11b,12,13,13a,13b-octadecahydro-1H-cyclopenta[a]chrysen-9-yl)benzoic acid]",< 100
10,"C=C(C)[C@@H]1CC[C@]2(CNCCCN3CCS(=O)(=O)CC3)CC[C@]3(C)[C@H](CC[C@@H]4[C@@]5(C)CC=C(c6ccc(C(=O)O)cc6)C(C)(C)[C@@H]5CC[C@]43C)[C@@H]12 [Example 14, 4-((1R,3aS,5aR,5bR,7aR,11aS,11bR,13aR,13bR)-5a,5b,8,8,11a-pentamethyl-1-(prop-1-en-2-yl)-3a-((3-(1-dioxo-thiomorpholino)propylamino)methyl)-2,3,3a,4,5,5a,5b,6,7,7a,8,11,11a,11b,12,13,13a,13b-octadecahydro-1H-cyclopenta[a]chrysen-9-yl)benzoic acid]",< 100
11,"C=C(C)[C@@H]1CC[C@]2(CN(C)CCCN3CCS(=O)(=O)CC3)CC[C@]3(C)[C@H](CC[C@@H]4[C@@]5(C)CC=C(c6ccc(C(=O)O)cc6)C(C)(C)[C@@H]5CC[C@]43C)[C@@H]12 [Example 15, 4-((1R,3aS,5aR,5bR,7aR,11aS,11bR,13aR,13bR)-5a,5b,8,8,11a-pentamethyl-1-(prop-1-en-2-yl)-3a-((3-(1-dioxo-thiomorpholino)propylamino)methyl)-2,3,3a,4,5,5a,5b,6,7,7a,8,11,11a,11b,12,13,13a,13b-octadecahydro-1H-cyclopenta[a]chrysen-9-yl)benzoic acid]",< 100

# Same assay, conditions: NL43, MT-2 cells infected 4-5 days with NLRluc recombinant virus, numeric value
row,SMILES,EC50 [nM]
1,"C=C(C)[C@@H]1CC[C@]2(CNCC3CCCN3CC)CC[C@]3(C)[C@H](CC[C@@H]4[C@@]5(C)CC=C(c6ccc(C(=O)O)cc6)C(C)(C)[C@@H]5CC[C@]43C)[C@@H]12 (single isomer, unassigned) [Example 3]",30
2,"C=C(C)[C@@H]1CC[C@]2(CNCCc3ccccn3)CC[C@]3(C)[C@H](CC[C@@H]4[C@@]5(C)CC=C(c6ccc(C(=O)O)cc6)C(C)(C)[C@@H]5CC[C@]43C)[C@@H]12 [Example 5, 4-((1R,3aS,5aR,5bR,7aR,11aS,11bR,13aR,13bR)-5a,5b,8,8,11a-pentamethyl-1-(prop-1-en-2-yl)-3a-((2-(pyridin-2-yl)ethylamino)methyl)-2,3,3a,4,5,5a,5b,6,7,7a,8,11,11a,11b,12,13,13a,13b-octadecahydro-1H-cyclopenta[a]chrysen-9-yl)benzoic acid]",20
3,"C=C(C)[C@@H]1CC[C@]2(CNCCCN(C)C)CC[C@]3(C)[C@H](CC[C@@H]4[C@@]5(C)CC=C(c6ccc(C(=O)O)cc6)C(C)(C)[C@@H]5CC[C@]43C)[C@@H]12 [Example 6, 4-((1R,3aS,5aR,5bR,7aR,11aS,11bR,13aR,13bR)-3a-((3-(dimethylamino)propylamino)methyl)-5a,5b,8,8,11a-pentamethyl-1-(prop-1-en-2-yl)-2,3,3a,4,5,5a,5b,6,7,7a,8,11,11a,11b,12,13,13a,13b-octadecahydro-1H-cyclopenta[a]chrysen-9-yl)benzoic acid]",30
4,"C=C(C)[C@@H]1CC[C@]2(CNCC(c3cccnc3)N(C)C)CC[C@]3(C)[C@H](CC[C@@H]4[C@@]5(C)CC=C(c6ccc(C(=O)O)cc6)C(C)(C)[C@@H]5CC[C@]43C)[C@@H]12 (stereo partly drawn) [Example 10, 4-((1R,3aS,5aR,5bR,7aR,11aS,11bR,13aR,13bR)-3a-((2-(dimethylamino)-2-(pyridin-3-yl)ethylamino)methyl)-5a,5b,8,8,11a-pentamethyl-1-(prop-1-en-2-yl)-2,3,3a,4,5,5a,5b,6,7,7a,8,11,11a,11b,12,13,13a,13b-octadecahydro-1H-cyclopenta[a]chrysen-9-yl)benzoic acid]",4
